Measured values as given in patent US20100311714A1, “1H-IMIDAZO[4,5-c]QUINOLINONE COMPOUNDS” (priority 2009, published 2010).

Tests used:
[1] = system: PKB Ser473 phosphorylation in Rat1-myr-HA-p110 alpha cells; assay: Reverse protein array, PKB Ser473 phosphorylation in Rat1-myr-HA-p110 alpha cells; type: cell-based; conditions: Rattus norvegicus, 0.5 h, 30 minutes compound incubation, read-out: p-PKB/IC50_alpha
[2] = system: PKB Ser473 phosphorylation in Rat1-myr-HA-p110 delta cells; assay: Reverse protein array, PKB Ser473 phosphorylation in Rat1-myr-HA-p110 delta cells; type: cell-based; conditions: Rattus norvegicus, 0.5 h, 30 minutes compound incubation, read-out: p-PKB/IC50_delta

IC50 [1]: 4.9 nM
IC50 [2]: 8.3 nM
Structure (SMILES): CCNc1cc(-c2ccc3ncc4c(c3c2)n(-c2ccc(OC)nc2C)c(=O)n4C)cnc1C [Example 11.7, 8-(5-Ethylamino-6-methyl-pyridin-3-yl)-1-(6-methoxy-2-methyl-pyridin-3-yl)-3-methyl-1,3-dihydro-imidazo[4,5-c]quinolin-2-one]
